{
  "source": "patent US8530477B2",
  "about": "“Tropane urea derivatives, preparation thereof and therapeutic application thereof as modulators of the activity of 11betaHSD1” (Sanofi, priority 2008, dated 2013)",
  "key": {"11beta-HSD1 enzyme": {"molecular_target": "T1, 11beta-HSD1 enzyme (Homo sapiens, UniProt P28845)", "T1 construct": "made in house; host or cells: Saccharomyces cerevisiae", "T1 sequence (P28845 whole entry, species assumed)": "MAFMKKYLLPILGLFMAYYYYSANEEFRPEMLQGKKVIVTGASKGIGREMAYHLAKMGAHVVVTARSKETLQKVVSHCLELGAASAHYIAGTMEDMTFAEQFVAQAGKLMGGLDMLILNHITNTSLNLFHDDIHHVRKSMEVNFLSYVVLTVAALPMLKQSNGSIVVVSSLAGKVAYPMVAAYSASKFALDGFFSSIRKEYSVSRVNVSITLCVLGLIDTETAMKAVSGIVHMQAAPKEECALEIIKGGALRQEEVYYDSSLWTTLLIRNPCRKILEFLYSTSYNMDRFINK", "experiment": "SPA (Scintillation Proximity Assay) of in vitro inhibitory activity on 11beta-HSD1, 384-well format", "assay_type": "biochemical", "conditions": "recombinant 11beta-HSD1 produced in yeast S. cerevisiae; 3H-cortisone, NADPH; cortisol formed; read-out: concentration which inhibits 50% of the activity of 11beta-HSD1 (IC50)", "procedure": "The compounds according to the invention were the subject of pharmacological assays for determining their inhibitory effect on the 11beta-HSD1 enzyme which is an enzyme involved in lipid metabolism or glucose metabolism.\nThese assays consisted in measuring the in vitro inhibitory activity of the compounds of the invention by means of an SPA (Scintillation Proximity Assay) in 384-well format. Recombinant 11beta-HSD1 protein was produced in the yeast S. cerevisiae. The reaction was carried out by incubating the enzyme in the presence of ^3H-cortisone and of NADPH, in the absence or presence of an increasing concentration of inhibitor. SPA beads coupled to an anti-mouse antibody, pre-incubated with an anti-cortisol antibody, made it possible to measure the amount of cortisol formed during the course of the reaction.\nThe inhibitory activity with respect to the 11beta-HSD1 enzyme is given by the concentration which inhibits 50% of the activity of 11beta-HSD1 (IC50)."}, "11βHSD1 [1]": {"molecular_target": "T2, 11βHSD1 (Homo sapiens, UniProt P28845)", "T2 sequence (P28845 whole entry)": "as the sequence (P28845 whole entry, species assumed) above", "design": "host or cells: healthy volunteers (in vivo, bone)", "conditions": "healthy volunteers; cited from earlier work"}, "11βHSD1 [2]": {"molecular_target": "T2, 11βHSD1", "conditions": "slim volunteer patients and type 2 diabetics; cited from earlier work"}, "11βHSD1 in the eyes": {"molecular_target": "T3, 11βHSD1 in the eyes (Homo sapiens, UniProt P28845)", "T3 construct": "host or cells: healthy volunteers (in vivo, eye)", "T3 sequence (P28845 whole entry)": "as the sequence (P28845 whole entry, species assumed) above", "conditions": "healthy volunteers; after seven days of treatment; cited from earlier work"}, "11βHSD1 [3]": {"molecular_target": "T2, 11βHSD1", "design": "host or cells: elderly human individuals (in vivo)", "conditions": "elderly individuals; cited from earlier work"}},
  "data": [
    {"smiles": "CS(=O)(=O)N1CCN(c2ccc(OCC3CC4CCC(C3)N4C(=O)NC3C4CC5CC3CC(O)(C5)C4)cc2)CC1", "note": "(stereo not drawn) [Compound No. 17, endo-3-[4-(4-Methanesulfonylpiperazin-1-yl)phenoxymethyl]-8-azabicyclo-[3.2.1]octane-8-carboxylic acid (trans-5-hydroxyadamantan-2-yl)amide]", "values": [
      {"measurement": "IC50", "setting": "11beta-HSD1 enzyme", "value": 4, "unit": "nM"}
    ]},
    {"smiles": "CC1(C)[C@@H](OC(=O)CCC(=O)O)CC[C@]2(C)[C@H]3C(=O)C=C4[C@@H]5C[C@@](C)(C(=O)O)CC[C@]5(C)CC[C@@]4(C)[C@]3(C)CC[C@@H]12", "note": "[carbenoxolone]", "values": [
      {"measurement": "bone formation markers", "setting": "11βHSD1 [1]", "value": "without any change"},
      {"measurement": "bone resorption markers", "setting": "11βHSD1 [1]", "value": "decrease"},
      {"measurement": "insulin sensitivity", "setting": "11βHSD1 [2]", "value": "improves insulin sensitivity"},
      {"measurement": "IOP (intraocular pressure) reduced by", "setting": "11βHSD1 in the eyes", "value": 18, "unit": "%"},
      {"measurement": "verbal fluidity and verbal memory", "setting": "11βHSD1 [3]", "value": "improves verbal fluidity and verbal memory"}
    ]},
    {"smiles": "CS(=O)(=O)N1CCN(c2ccc(OC3CC4CCC(C3)N4C(=O)NC3C4CC5CC3CC(O)(C5)C4)cc2)CC1", "note": "(stereo not drawn) [compound 5, exo-3-[4-(4-Methanesulfonylpiperazin-1-yl)phenoxy]-8-azabicyclo-[3.2.1]octane-8-carboxylic acid (trans-5-hydroxyadamantan-2-yl)amide]", "values": [
      {"measurement": "IC50", "setting": "11beta-HSD1 enzyme", "value": 10, "unit": "nM"}
    ]}
  ]
}
